Laboratory results: PubChem BioAssay AID2060885 (Molecular Pharmacology Branch, DTP, NCI, 2025)

Test system: NCI-H23 complex spheroids with HUVEC/MSC, viability
Assay: Anticancer human tumor NCI-H23 cell line growth inhibition [RAS];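 also: spheroids exposed to compound for 7 days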;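 as to viability, T/C: 100% = DMSO vehicle control viability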
Conditions: for IC50: curve of first compound; for viability, T/C: stronger effect = lower value
Outline: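 Agents were tested in combination matrices in half-log decrements from a top concentration at or near clinical Cmax (10 microM if undetermined). Targets were multi-cell spheroids of tumour lines plus HUVEC and MSC stromal cells.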

CC(=O)OC12COC1CC(O)C1(C)C(=O)C(O)C3=C(C)C(OC(=O)C(O)C(NC(=O)OC(C)(C)C)c4ccccc4)CC(O)(C(OC(=O)c4ccccc4)C21)C3(C)C (configuration not stated) + CCn1c(-c2cc(N3CCN(C)CC3)cnc2C(C)OC)c2c3cc(ccc31)-c1csc(n1)CC(NC(=O)C1CC1C)C(=O)N1CCCC(N1)C(=O)OCC(C)(C)C2 was tested. Which IC50 (second compound 0.000949 µM) did it give?
Its IC50 is less than 31.6 nM.

What about the IC50 (second compound 0.003 µM) of the same compound?
Its IC50 is less than 31.6 nM.

What about the IC50 (second compound 0.00949 µM) of the same compound?
The IC50 was less than 31.6 nM.

What about the IC50 (second compound 0.03 µM) of the same compound?
Its IC50 is less than 31.6 nM.

And the IC50 (second compound 0.0949 µM)?
Its IC50 is less than 31.6 nM.

What about the IC50 (second compound 0.3 µM) of the same compound?
Its IC50 is less than 31.6 nM.

And the viability, T/C (second compound 0.000949 µM, first compound 0.0316 µM)?
The viability, T/C was 13.9%.

What about the viability, T/C (second compound 0.000949 µM, first compound 0.1 µM) of the same compound?
The viability, T/C was 16.1%.

And the viability, T/C (second compound 0.000949 µM, first compound 0.316 µM)?
Its viability, T/C is 14.7%.

What about the viability, T/C (second compound 0.000949 µM, first compound 1 µM) of the same compound?
The viability, T/C was 15.5%.

What about the viability, T/C (second compound 0.000949 µM, first compound 3.16 µM) of the same compound?
Its viability, T/C is 21.5%.

What about the viability, T/C (second compound 0.000949 µM, first compound 10 µM) of the same compound?
The viability, T/C was 25.5%.

And the viability, T/C (second compound 0.003 µM, first compound 0.0316 µM)?
The viability, T/C was 11.9%.

What about the viability, T/C (second compound 0.003 µM, first compound 0.1 µM) of the same compound?
Its viability, T/C is 12.4%.

And the viability, T/C (second compound 0.003 µM, first compound 0.316 µM)?
The viability, T/C was 11.6%.

What about the viability, T/C (second compound 0.003 µM, first compound 1 µM) of the same compound?
Its viability, T/C is 12.1%.

And the viability, T/C (second compound 0.003 µM, first compound 3.16 µM)?
Its viability, T/C is 17.1%.

And the viability, T/C (second compound 0.003 µM, first compound 10 µM)?
Its viability, T/C is 19.4%.

What about the viability, T/C (second compound 0.00949 µM, first compound 0.0316 µM) of the same compound?
The viability, T/C was 12.5%.

And the viability, T/C (second compound 0.00949 µM, first compound 0.1 µM)?
The viability, T/C was 10.9%.

What about the viability, T/C (second compound 0.00949 µM, first compound 0.316 µM) of the same compound?
Its viability, T/C is 11.6%.

What about the viability, T/C (second compound 0.00949 µM, first compound 1 µM) of the same compound?
Its viability, T/C is 13.9%.

And the viability, T/C (second compound 0.00949 µM, first compound 3.16 µM)?
The viability, T/C was 15.8%.

And the viability, T/C (second compound 0.00949 µM, first compound 10 µM)?
Its viability, T/C is 17.3%.

And the viability, T/C (second compound 0.03 µM, first compound 0.0316 µM)?
The viability, T/C was 11.4%.

What about the viability, T/C (second compound 0.03 µM, first compound 0.1 µM) of the same compound?
The viability, T/C was 11.7%.

What about the viability, T/C (second compound 0.03 µM, first compound 0.316 µM) of the same compound?
The viability, T/C was 12%.

And the viability, T/C (second compound 0.03 µM, first compound 1 µM)?
The viability, T/C was 12.5%.

And the viability, T/C (second compound 0.03 µM, first compound 3.16 µM)?
The viability, T/C was 16.4%.

And the viability, T/C (second compound 0.03 µM, first compound 10 µM)?
The viability, T/C was 19.9%.

And the viability, T/C (second compound 0.0949 µM, first compound 0.0316 µM)?
The viability, T/C was 10.7%.

And the viability, T/C (second compound 0.0949 µM, first compound 0.1 µM)?
The viability, T/C was 10.6%.

And the viability, T/C (second compound 0.0949 µM, first compound 0.316 µM)?
Its viability, T/C is 10.4%.

And the viability, T/C (second compound 0.0949 µM, first compound 1 µM)?
The viability, T/C was 10.9%.

What about the viability, T/C (second compound 0.0949 µM, first compound 3.16 µM) of the same compound?
Its viability, T/C is 12.4%.

What about the viability, T/C (second compound 0.0949 µM, first compound 10 µM) of the same compound?
Its viability, T/C is 14.9%.

What about the viability, T/C (second compound 0.3 µM, first compound 0.0316 µM) of the same compound?
The viability, T/C was 10.1%.

And the viability, T/C (second compound 0.3 µM, first compound 0.1 µM)?
The viability, T/C was 8.97%.

What about the viability, T/C (second compound 0.3 µM, first compound 0.316 µM) of the same compound?
The viability, T/C was 10.4%.

What about the viability, T/C (second compound 0.3 µM, first compound 1 µM) of the same compound?
The viability, T/C was 8.98%.

And the viability, T/C (second compound 0.3 µM, first compound 3.16 µM)?
Its viability, T/C is 12.6%.

And the viability, T/C (second compound 0.3 µM, first compound 10 µM)?
The viability, T/C was 14.2%.
